Test results published in the supplement of paper PMC10307832.

Legend:
Experiment in all cases: relative viability (nuclei count vs DMSO), 5 days (fraction); higher = more cells survive
[1] = compound: CC1CC(=O)N(C2=CN=C(N=C2N1C3CCCC3)NC4=C(C=C(C=C4)C(=O)NC5CCN(CC5)C)OC)C [NPK76-II-72-1] + CC(=O)c1c(C)c2cnc(Nc3ccc(N4CCNCC4)cn3)nc2n(C2CCCC2)c1=O [Palbociclib] (partner 0.5 µM)
How it was run: (§1)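 For relative viability, nuclei counts in treated wells were divided by those in vehicle wells. Lung cancer cell lines had been pin-tool dosed in 1536-well plates the day after seeding and cultured for 5 days, then fixed and stained in one step (final 0.05% Triton X-100, 1% formaldehyde, 1 ug/ml Hoechst) and imaged at 4×. Doses were one drug alone or a fixed anchor-drug dose plus five library-drug doses (not always all listed) in √10 steps, and values are duplicate-plate medians.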

[2] = compound: CC1CC(=O)N(C2=CN=C(N=C2N1C3CCCC3)NC4=C(C=C(C=C4)C(=O)NC5CCN(CC5)C)OC)C [NPK76-II-72-1] + Nc1nc2[nH]cc(CCc3ccc(C(=O)N[C@@H](CCC(=O)O)C(=O)O)cc3)c2c(=O)[nH]1 [Pemetrexed] (partner 0.2 µM)
How it was run: as §1

BI-2536 + Decitabine = compound: CC[C@@H]1C(=O)N(C)c2cnc(Nc3ccc(C(=O)NC4CCN(C)CC4)cc3OC)nc2N1C1CCCC1 [BI-2536] + Nc1ncn([C@H]2C[C@H](O)[C@@H](CO)O2)c(=O)n1 [Decitabine] (partner 2 µM)
How it was run: as §1

BI-2536 + Alpelisib = compound: CC[C@@H]1C(=O)N(C)c2cnc(Nc3ccc(C(=O)NC4CCN(C)CC4)cc3OC)nc2N1C1CCCC1 [BI-2536] + Cc1nc(NC(=O)N2CCC[C@H]2C(N)=O)sc1-c1ccnc(C(C)(C)C(F)(F)F)c1 [Alpelisib] (partner 2 µM)
How it was run: as §1

Row | Cell Line | relative viability ([1]; first compound 0.01 µM) | relative viability ([1]; first compound 0.03162 µM) | relative viability ([1]; first compound 0.1 µM) | relative viability ([1]; first compound 0.3162 µM) | relative viability ([1]; first compound 1 µM) | relative viability ([2]; first compound 0.01 µM) | relative viability ([2]; first compound 0.03162 µM) | relative viability ([2]; first compound 0.1 µM) | relative viability ([2]; first compound 0.3162 µM) | relative viability ([2]; first compound 1 µM) | relative viability (BI-2536 + Decitabine; first compound 0.01 µM) | relative viability (BI-2536 + Decitabine; first compound 0.03162 µM) | relative viability (BI-2536 + Decitabine; first compound 0.1 µM) | relative viability (BI-2536 + Decitabine; first compound 0.3162 µM) | relative viability (BI-2536 + Decitabine; first compound 1 µM) | relative viability (BI-2536 + Alpelisib; first compound 0.01 µM) | relative viability (BI-2536 + Alpelisib; first compound 0.03162 µM) | relative viability (BI-2536 + Alpelisib; first compound 0.1 µM) | relative viability (BI-2536 + Alpelisib; first compound 0.3162 µM) | relative viability (BI-2536 + Alpelisib; first compound 1 µM)
1 | NCI-H1755 | 0.453 | 0.441 | 0.464 | 0.453 | 0.479 | 0.385 | 0.405 | 0.464 | 0.544 | 0.405 | 0.689 | 0.716 | 0.642 | 0.347 | 0.379 | 0.989 | 0.903 | 0.711 | 0.284 | 0.296
2 | HCC-78 | 0.423 | 0.44 | 0.425 | 0.385 | 0.502 | 0.978 | 0.893 | 0.75 | 0.869 | 0.895 | 0.678 | 0.692 | 0.694 | 0.363 | 0.331 | 0.357 | 0.295 | 0.379 | 0.211 | 0.164
3 | IA-LM | – | – | – | – | – | – | – | – | – | – | – | – | – | – | – | 0.729 | 0.652 | 0.588 | 0.0728 | 0.0917
4 | NCI-H322M | 0.485 | 0.492 | 0.48 | 0.482 | 0.47 | 0.606 | 0.566 | 0.601 | 0.539 | 0.595 | 0.69 | 0.64 | 0.649 | 0.462 | 0.451 | 0.912 | 0.881 | 0.811 | 0.618 | 0.269
5 | NCI-H3122 | 0.183 | 0.18 | 0.179 | 0.194 | 0.213 | 0.209 | 0.191 | 0.181 | 0.195 | 0.209 | 0.386 | 0.508 | 0.392 | 0.151 | 0.159 | 0.877 | 0.662 | 0.354 | 0.198 | 0.203
6 | COR-L23 | 0.264 | 0.304 | 0.314 | 0.29 | 0.342 | 0.207 | 0.19 | 0.195 | 0.193 | 0.211 | 0.424 | 0.359 | 0.149 | 0.104 | 0.13 | 0.853 | 0.675 | 0.18 | 0.0928 | 0.0868
7 | NCI-H2087 | 0.236 | 0.255 | 0.242 | 0.22 | 0.254 | 0.66 | 0.653 | 0.588 | 0.661 | 0.63 | 0.273 | 0.247 | 0.149 | 0.0727 | 0.0981 | 1.11 | 1.18 | 1.03 | 0.15 | 0.132
8 | LC-2-ad | 0.491 | 0.508 | 0.537 | 0.498 | 0.475 | 0.24 | 0.281 | 0.269 | 0.266 | 0.272 | 0.739 | 0.659 | 0.506 | 0.247 | 0.223 | 0.521 | 0.348 | 0.0935 | 0.0735 | 0.123
9 | ChaGo-K-1 | 0.871 | 0.891 | 0.892 | 0.925 | 0.945 | 0.243 | 0.259 | 0.261 | 0.246 | 0.257 | 0.524 | 0.402 | 0.403 | 0.184 | 0.206 | – | – | – | – | –
10 | NCI-H522 | 0.866 | 1.02 | 0.981 | – | 1.1 | 0.839 | 0.914 | 1.01 | – | 0.797 | 0.715 | 0.626 | 0.698 | 0.312 | 0.358 | – | – | – | – | –
11 | NCI-H1299 | – | – | – | – | – | – | – | – | – | – | – | – | – | – | – | 0.952 | 1.15 | 1 | 0.278 | 0.339
12 | NCI-H1650 | 0.314 | 0.428 | 0.458 | 0.31 | 0.407 | 0.325 | 0.368 | 0.345 | 0.399 | 0.358 | 0.388 | 0.327 | 0.278 | 0.11 | 0.148 | – | – | – | – | –
13 | NCI-H1648 | 0.23 | 0.269 | 0.24 | 0.266 | 0.279 | 0.633 | 0.648 | 0.702 | 0.739 | 0.732 | 0.536 | 0.451 | 0.447 | 0.195 | 0.29 | – | – | – | – | –
14 | NCI-H596 | – | – | – | – | – | 0.522 | 0.503 | 0.485 | 0.482 | 0.462 | 1.07 | 1.25 | 0.996 | 0.611 | 0.417 | 0.409 | 0.46 | 0.535 | 0.305 | 0.304
15 | NCI-H727 | 0.705 | 0.671 | 0.594 | 0.621 | 0.712 | – | – | – | – | – | 0.819 | 0.841 | 0.849 | 0.477 | 0.372 | 0.616 | 0.636 | 0.453 | 0.245 | 0.238
16 | NCI-H2342 | 0.487 | 0.468 | 0.47 | 0.508 | 0.541 | 0.74 | 0.755 | 0.812 | 0.584 | 0.772 | – | 0.732 | 0.637 | 0.514 | 0.433 | – | – | – | – | –
17 | SW 900 | 0.53 | 0.632 | 0.464 | 0.441 | 0.584 | 0.445 | 0.49 | 0.493 | 0.463 | 0.493 | 0.433 | 0.458 | 0.384 | 0.28 | 0.203 | – | – | – | – | –
18 | A549 | – | – | – | – | – | – | – | – | – | – | 0.26 | 0.315 | 0.246 | 0.0414 | 0.0226 | 0.767 | 0.814 | 0.698 | 0.0447 | 0.0443
19 | NCI-H1563 | – | – | – | – | – | 0.581 | 0.767 | 0.839 | 0.604 | 0.767 | – | – | – | – | – | 0.858 | 0.933 | 0.928 | 0.598 | 0.583
20 | ABC-1 | 0.522 | 0.646 | 0.791 | 0.511 | 0.672 | – | – | – | – | – | 1.04 | 0.989 | 0.385 | 0.397 | 0.467 | 1.08 | 1.13 | 0.732 | 0.296 | 0.3
